Source: US20240352145A1, “EFFICACY OF ANTI-TROP-2-SN-38 ANTIBODY DRUG CONJUGATES FOR THERAPY OF TUMORS RELAPSED/REFRACTORY TO CHECKPOINT INHIBITORS” (Immunomedics, Inc., priority 2016, published 2024)
Where two headings read alike, the source gives them in different places.

What was measured:
MDA-MB-468 = assay: ADCC LDH-release, MDA-MB-468; assay type: cell-based, human; conditions: for specific lysis (ADCC): MDA-MB-468, 33.3 nM, E:T 50:1, 4 h
Description: The next day, peripheral blood mononuclear effector cells (PBMCs) were freshly isolated from a donor and added to assigned wells on the reaction plate at an E:T ratio of 50:1. Acquisition of human PBMCs was done under the approval of the New England Institutional Review Board (Newton, MA). […] One set of wells received ADCC assay medium alone for background control and another set of wells received cells alone plus TritonX100 for maximum cells lysis control. The plate was incubated for 4 h at 37° C. After 4 h, target cell lysis was assessed by a homogenous fluorometric LDH release assay (Cyto Tox-One Homogenous Membrane Integrity Assay; Promega, Cat. G7891).
Data were analyzed by Microsoft Excel. Percent specific lysis was calculated as follows:
where: • Experimental: effector+target cells+antibody • Effector+Target Control: effector+target cells • Max. Lysis: target cells+Triton-X100 • Target Control: target cells only

Trop-2 = target: T1, Trop-2 (Homo sapiens, UniProt P09758); assay: Trop-2 ELISA, human; assay type: binding; design: purchased Sino Biological, Inc. 10428-H09H
T1 sequence (P09758 27-323): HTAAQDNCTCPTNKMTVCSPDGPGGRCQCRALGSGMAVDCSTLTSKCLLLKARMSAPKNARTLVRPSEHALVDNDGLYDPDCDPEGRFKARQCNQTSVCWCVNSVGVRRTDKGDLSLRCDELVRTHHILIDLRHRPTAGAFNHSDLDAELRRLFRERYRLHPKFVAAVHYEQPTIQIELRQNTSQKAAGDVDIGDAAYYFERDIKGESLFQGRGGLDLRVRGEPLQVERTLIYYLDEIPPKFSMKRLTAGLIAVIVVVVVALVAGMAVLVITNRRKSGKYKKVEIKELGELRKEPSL
Description: Trop-2 ELISA—Recombinant human Trop-2 with a His-tag (Sino Biological, Inc., Bejing, China; Cat #10428-H09H) and recombinant mouse Trop-2 with a His-Tag (Sino Biological, Inc., Cat #50922-M08H) were plated onto Ni-NTA Hissorb strips (Qiagen GmbH Cat #35023) at 1 μg for 1 h at room temperature. The plate was washed four times with PBS-Tween (0.05%) wash buffer. Serial dilutions of hRS7 were made in 1% BSA-PBS dilution buffer to a test range of 0.1 ng/mL to 10 μg/mL. The plates were then incubated for 2 h at room temperature before being washed four times followed by the addition of a peroxidase conjugated secondary antibody (goat anti-human, Fc fragment specific; Jackson Immunoresearch Cat #109-036-098). After a 45-min incubation, the plate was washed and a substrate solution (o-phenylenediamine dihydrochloride (OPD); Sigma, Cat #P828) added to all the wells. Plates were incubated in the dark for 15 min before the reaction was stopped with 4N sulfuric acid. The plates were read at 450 nm on Biotek ELX808 plate reader. Data were analyzed and graphed using Prism GraphPad Software (v4.03) (Advanced Graphics Software, Inc.; Encinitas, CA).

PC-3 = assay: In vitro cytotoxicity, PC-3
Description: (§2) Cell lines, antibodies, and chemotherapeutics—All human cancer cell lines used in this study were purchased from the American Type Culture Collection.

metastatic SCLC = assay: Phase I/II, metastatic SCLC cohort; assay type: in vivo, human
[1] = SN-38 release at lysosomal pH; assay type: physicochemical; conditions: pH 5.3 at 37° C.
BxPC-3 = assay: Cytotoxicity (MTS), Example 6, BxPC-3; assay type: cell-based, human; conditions: BxPC-3, 96 h
Description: (§1) One day prior to adding the ADCs, cells were harvested from tissue culture and plated into 96-well plates. […] Plates were incubated at 37° C. for 96 h. […] Growth inhibition was measured as a percent of growth relative to untreated cells using Microsoft Excel and Prism software (non-linear regression to generate sigmoidal dose response curves which yield IC50-values.

small-cell lung cancer = assay type: in vivo, human
Excerpt: This is a person with a diagnosis of small-cell lung cancer, involving their left lung, mediastinal lymph nodes, and MRI evidence of a metastasis to the left parietal brain lobe. Prior chemotherapy includes carboplatin, etoposide, and topotecan, but with no response noted. Radiation therapy also fails to control their disease.

Capan-1 [2] = assay: Cytotoxicity (MTS), Example 6, Capan-1; assay type: cell-based, human; conditions: Capan-1, 96 h
Description: as §1

NCI-N87 = assay: Cytotoxicity (MTS), Example 6, NCI-N87; assay type: cell-based, human; conditions: NCI-N87, 96 h
Description: as §1

HCC1806 (Trop-2+) = assay: dsDNA breaks, phospho-H2AX flow cytometry, HCC1806; assay type: cell-based, human; conditions: untreated baseline 168
Description: In vitro specificity testing by flow cytometry with rH2AX-stained cells—For drug activity testing, HCC1806 and HCC1395 TNBC cell lines cells were seeded in 6-well plates at 5×10^5 cells/well and held at 37° C. overnight. […] The signal intensity of rH2AX was measured by flow cytometry using a BD FACSCalibur (BD Biosciences, San Jose, CA).
The cells were then washed to remove unbound conjugate, and then incubated overnight at 37° C.

Capan-1 [3] = assay: In vitro cytotoxicity, Capan-1
Description: as §2

[4] = tested on: human gastric carcinoma xenografts (NCI-N87); assay: NCI-N87 xenograft, comparison of anti-Trop-2 ADCs; assay type: in vivo, mouse
Description: NCI-N87 cells were expanded in tissue culture and harvested with trypsin/EDTA. Female athymic nude mice were injected s.c. with 200 μL of NCI-N87 cell suspension mixed 1:1 with matrigel such that 1×10^7 cells was administered to each mouse. Once tumors reached approximately 0.25 cm^3 in size (6 days later), the animals were divided up into seven different treatment groups of nine mice each. For the SN-38 ADCs, mice received 500 μg i.v. injections once a week for two weeks. Control mice received the non-tumor targeting hA20-SN-38 ADC at the same dose/schedule. A final group of mice received only saline and served as the untreated control. Tumors were measured and mice weighed twice a week. Mice were euthanized for disease progression if their tumor volumes exceeded 1.0 cm^3 in size.

[5] = Tolerability in Swiss-Webster mice; assay type: in vivo, mouse

Substance: hRS7 IgG
- specific lysis (ADCC) (MDA-MB-468): 29.8±2.6%
- Kd (Trop-2): 0.3 nM

Substance: IMMU-132
- IC50 (PC-3): 4.24 nM
- median OS (metastatic SCLC; 8 mg/kg): 8.1 months
- median PFS (metastatic SCLC; 8 mg/kg): 2.0 months
- median PFS (metastatic SCLC; 10 mg/kg): 3.6 months
- median time to progression (metastatic SCLC; in vivo): 4.9 months
- specific lysis (ADCC) (MDA-MB-468): 8.6±2.6%
- loss of effector function (ADCC) (MDA-MB-468; three different cell lines): 60-70%
- time for release of 50% of the SN-38 [1]: ~13 h
- IC50 (BxPC-3): 2.6 nM
- shrinkage of target left lung mass (small-cell lung cancer; 18 mg/kg once every three weeks, after fifth infusion): 13%
- reduction of brain metastasis (small-cell lung cancer; after another 3 months): 21%
- reduction of left lung mass (small-cell lung cancer; after another 3 months): 25%
- reduction of brain metastasis (small-cell lung cancer; after fifth infusion): 10%
- adverse events after second dose (small-cell lung cancer; in vivo): hypotension and a Grade 2 neutropenia
- IC50 (Capan-1 [2]): 3.5 nM
- IC50 (NCI-N87): 3.6 nM
- Median fluorescence intensity, anti-rH2AX-AF488 (HCC1806 (Trop-2+)): 546
- IC50 (Capan-1 [3]): 6.99 nM
- tumor growth (AUC) vs saline and hA20-SN-38 ([4]; 500 μg i.v. once a week for two weeks): significantly inhibited tumor growth
- mean time to tumor progression (TTP) ([4]; mouse, in vivo): 18.4 ± 3.3 days
- mice with stable disease ([4]; nine mice per group): 7 of 9
- hematopoietic toxicity ([5]; 2 doses of 4, 8, 12 mg SN-38/kg): No hematopoietic toxicity occurred
- tolerability, weight loss ([5]; 2 doses over 3 days, each of 4, 8, and 12 mg SN-38/kg): minimal transient weight loss
- aspartate transaminase (AST) ([5]; mouse, in vivo): > 298 U/L
- liver histology ([5]; mouse, in vivo): did not show histologic evidence of tissue damage
- mice with slightly elevated glucose ([5]; mouse, in vivo): 5 of 7
- MTD, cumulative dose over 1 week ([5]; normal mice, no acute toxicity): > 24 mg/kg SN-38
